The results in this text go back to patent US12590070B2, “Adamantane derivatives as inhibitors of focal adhesion kinase” (SAMJIN PHARMACEUTICAL CO., LTD., priority 2019, dated 2026).

The target of assay [1] is T1, FAK (Homo sapiens, UniProt Q05397). Nature of the assay: FAK [pY397] ELISA in MDA-MB-231 cells. The class given is cell-based. More on the design: endogenous in cells; host or cells: MDA-MB-231. To be noted: MDA-MB-231, treated for one hour, Table 2; read-out: FAK inhibitory activity (IC50). The procedure: (§1) Briefly, an enzyme-linked immunosorbent assay test was performed according to the manufacturer's instructions by using the FAK (Phospho) [pY397] Human ELISA Kit (Thermo Fisher Scientific, KH00441) after dispensing 1×10^6 MDA-MB-231 cells into each well of a 6-well plate, inducing cell stabilization for 24 hours, and treating each compound at different concentrations (o, 1, 5, 10, 50, 100, 500, 1000 nM) for one hour.
(In general: An ELISA detects its analyte on a solid surface through an enzyme-linked reagent.)

Assay [2] addresses T2, InsR (Homo sapiens, UniProt P06213).
T2 construct: purchased Promega V9401
Nature of the assay: ADP-Glo Kinase Assay, InsR. The class given is biochemical. To be noted: ADP-Glo Kinase Assay Kit. The protocol: (§2) Briefly, a kinase test was performed and quantified according to the manufacturer's instructions after treating the adamantane derivative compound of the present invention by using the ADP-Glo™ Kinase Assay Kit (FAK, Promega, V1971; Pyk2, Promega, V4083; InsR, Promega, V9401) containing each kinase of Promega.
Background: In ADP-Glo the light output rises with the ADP produced.

Assay [3] deals with Hs578T. As to the kind of experiment: 3D spheroid assay, Hs578T. The class given is cell-based. To be noted: Homo sapiens, Hs-578T; Hs578T spheroids, 96 hours; read-out: Cancer cell growth inhibitory activity (IC50). The procedure: (§3) A 3D spheroid assay was performed as a method for measuring the growth of cancer cells under three-dimensional (3D) culture conditions. Briefly, the 5×10^3 triple-negative breast cancer cells in each well of a 96-well flat plate were three-dimensionally cultured for three days by using MammoCult™ Human Medium Kit (Stemcell Technologies, #05620) and the formed cancer cell spheroids were treated with compound 4 at different concentrations (o, 0.2, 0.5, 1, 2, 5, 10, 20 PM) for 96 hours. The cancer cell growth inhibitory effect of the compound was quantified according to the manufacturer's instructions by using CellTiter-Glo® 3D Cell Viability Assay Kit (Promega, G9681).

Assay [4] concerns the target T1, FAK. As to the kind of experiment: ADP-Glo Kinase Assay, FAK. The class given is biochemical. Also noted: purchased Promega V1971. To be noted: ADP-Glo Kinase Assay Kit. The procedure: as §2
Assay [5] deals with T3, ALK (Homo sapiens, UniProt Q9UM73).
T3 construct: purchased Eurofins (contract screening service)
As to the kind of experiment: Eurofins kinase screening and profiling, ALK. The assay is classed as biochemical.

Assay [6] concerns the target T4, Pyk2 (Homo sapiens, UniProt Q14289).
T4 construct: purchased Promega V4083
As to the kind of experiment: Eurofins kinase screening and profiling, Pyk2. The assay is classed as biochemical.

Assay [7] deals with MDA-MB-453. As to the kind of experiment: 3D spheroid assay, MDA-MB-453. The class given is cell-based. The settings on record: Homo sapiens; MDA-MB-453 spheroids, 96 hours; read-out: Cancer cell growth inhibitory activity (IC50). The procedure:
as §3

The subject of assay [8] is MDA-MB-231 cells. As to the kind of experiment: 3D invasion assay. The class given is cell-based, human. To be noted: MDA-MB-231 spheroids, 1, 5 μM, 72 hours, FIGS. 2 and 3. The procedure:
A cell invasion assay was performed and quantified according to a 3D invasion assay. Briefly, MDA-MB-231 cells were cultured in a 96-well round plate (5×10^3/well) for three days to form cancer cell spheroids, then fixed in a mixture of semi-solid Matrigel and type I collagen, and then treated with compound 4 at different concentrations (1, 5 μM). A degree of infiltration was analyzed by using a microscope (see FIG. 2) and an imaging software ImageJ in 72 hours later, and an obtained area value was quantified based on a following equation (Equation 1) and shown in a graph (see FIG. 3). Relative invasion=(total area of compound treated group−spheroid area of compound treated group)/(total area of control−spheroid area of control) [Equation 1]

In assay [9] the test system is MDA-MB-231 cells. Nature of the assay: Triple-negative breast cancer xenograft mouse model. The assay is classed as in vivo. The settings on record: MDA-MB-231 xenograft nude mice. The procedure:
In one week after acclimatization of five-week-old male nude mice, 1×10^6 MDA-MB-231 cells were subcutaneously inoculated into the mice and observed until a tumor volume reached about 100 mm^3 after 14 days. In order to confirm a tumor growth inhibitory effect of derived candidate materials in the triple-negative breast cancer xenograft mouse model, eight mice for each group were divided into a control group and three experimental groups at different concentrations (4-20 mg/kg, 4-40 mg/kg and 4-80 mg/kg), and each compound was treated once daily. A tumor volume of the mice was measured three times a week on every other day, and the mice were sacrificed on day 29 after cell inoculation. FIG. 4 is a graph showing the tumor volume calculated based on the following formula (Equation 2) with a starting date of drug treatment as day 1. Tumor volume (mm^3)=[(tumor short diameter^2×tumor long diameter)/2] [Equation 2] […] [Equation 3]

The target of assay [10] is T1, FAK. As to the kind of experiment: FAK [pY397] ELISA in BT-549 cells. The class given is cell-based. Also noted: endogenous in cells; host or cells: MDA-MB-231. The settings on record: cell line BT-549; read-out: FAK inhibitory activity (IC50).
In assay [11] the target is T5, Met (Homo sapiens, UniProt P08581).
T5 construct: purchased Eurofins (contract screening service)
Nature of the assay: Eurofins kinase screening and profiling, Met. The class given is biochemical.

Assay [12] deals with T1, FAK. Nature of the assay: Eurofins kinase screening and profiling, FAK. The class given is biochemical. Also noted: purchased Promega V1971.
In assay [13] the target is T1, FAK. Nature of the assay: FAK [pY397] ELISA in Hs578T cells. The class given is cell-based. Also noted: endogenous in cells; host or cells: MDA-MB-231. To be noted: cell line Hs578T; read-out: FAK inhibitory activity (IC50).
Assay [14] addresses T1, FAK. Nature of the assay: FAK [pY397] ELISA in BT-20 cells. To be noted: cell line BT-20; read-out: FAK inhibitory activity (IC50). More on the design: endogenous in cells; host or cells: MDA-MB-231. The class given is cell-based.
Assay [15] addresses T1, FAK. Nature of the assay: FAK [pY397] ELISA in MDA-MB-453 cells. The class given is cell-based. More on the design: endogenous in cells; host or cells: MDA-MB-231. The settings on record: cell line MDA-MB-453; read-out: FAK inhibitory activity (IC50).
Assay [16] deals with T4, Pyk2. Nature of the assay: ADP-Glo Kinase Assay, Pyk2. The class given is biochemical. To be noted: ADP-Glo Kinase Assay Kit. The procedure: as §2
Assay [17] addresses T1, FAK. Nature of the assay: FAK [pY397] ELISA in HCC70 cells. The assay is classed as cell-based. The settings on record: cell line HCC70; read-out: FAK inhibitory activity (IC50). More on the design: endogenous in cells; host or cells: MDA-MB-231. The protocol:
as §1

Where [18] appears, read: at 1 μM, read-out: % inhibition rate (at 1 μM).

T1 sequence (Q05397 whole entry): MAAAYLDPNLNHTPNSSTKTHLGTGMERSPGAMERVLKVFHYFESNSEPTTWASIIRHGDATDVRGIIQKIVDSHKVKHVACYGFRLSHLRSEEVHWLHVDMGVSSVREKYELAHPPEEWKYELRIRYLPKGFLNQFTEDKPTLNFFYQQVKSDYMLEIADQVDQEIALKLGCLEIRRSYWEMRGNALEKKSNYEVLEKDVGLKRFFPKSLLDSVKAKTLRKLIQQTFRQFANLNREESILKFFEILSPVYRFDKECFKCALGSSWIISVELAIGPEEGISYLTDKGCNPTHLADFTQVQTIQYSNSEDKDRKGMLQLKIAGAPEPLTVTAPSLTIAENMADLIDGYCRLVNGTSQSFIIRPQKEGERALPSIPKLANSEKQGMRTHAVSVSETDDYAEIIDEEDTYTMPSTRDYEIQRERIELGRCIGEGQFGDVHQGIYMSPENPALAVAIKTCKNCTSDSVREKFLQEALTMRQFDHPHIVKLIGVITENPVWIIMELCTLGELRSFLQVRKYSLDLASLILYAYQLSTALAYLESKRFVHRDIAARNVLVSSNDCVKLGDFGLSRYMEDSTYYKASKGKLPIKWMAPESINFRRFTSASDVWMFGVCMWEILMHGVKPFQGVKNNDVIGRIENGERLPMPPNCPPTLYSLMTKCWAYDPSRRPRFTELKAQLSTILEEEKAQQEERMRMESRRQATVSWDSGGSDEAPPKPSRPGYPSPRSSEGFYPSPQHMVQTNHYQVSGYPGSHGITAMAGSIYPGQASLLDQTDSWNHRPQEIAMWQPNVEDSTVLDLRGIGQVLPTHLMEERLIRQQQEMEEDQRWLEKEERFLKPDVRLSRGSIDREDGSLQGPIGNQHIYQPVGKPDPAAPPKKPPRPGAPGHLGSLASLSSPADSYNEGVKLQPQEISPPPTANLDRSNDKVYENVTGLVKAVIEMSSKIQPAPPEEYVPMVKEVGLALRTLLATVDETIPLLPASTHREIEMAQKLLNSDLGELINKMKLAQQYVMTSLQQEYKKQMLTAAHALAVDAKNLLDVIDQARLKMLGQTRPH
T4 sequence (Q14289 whole entry): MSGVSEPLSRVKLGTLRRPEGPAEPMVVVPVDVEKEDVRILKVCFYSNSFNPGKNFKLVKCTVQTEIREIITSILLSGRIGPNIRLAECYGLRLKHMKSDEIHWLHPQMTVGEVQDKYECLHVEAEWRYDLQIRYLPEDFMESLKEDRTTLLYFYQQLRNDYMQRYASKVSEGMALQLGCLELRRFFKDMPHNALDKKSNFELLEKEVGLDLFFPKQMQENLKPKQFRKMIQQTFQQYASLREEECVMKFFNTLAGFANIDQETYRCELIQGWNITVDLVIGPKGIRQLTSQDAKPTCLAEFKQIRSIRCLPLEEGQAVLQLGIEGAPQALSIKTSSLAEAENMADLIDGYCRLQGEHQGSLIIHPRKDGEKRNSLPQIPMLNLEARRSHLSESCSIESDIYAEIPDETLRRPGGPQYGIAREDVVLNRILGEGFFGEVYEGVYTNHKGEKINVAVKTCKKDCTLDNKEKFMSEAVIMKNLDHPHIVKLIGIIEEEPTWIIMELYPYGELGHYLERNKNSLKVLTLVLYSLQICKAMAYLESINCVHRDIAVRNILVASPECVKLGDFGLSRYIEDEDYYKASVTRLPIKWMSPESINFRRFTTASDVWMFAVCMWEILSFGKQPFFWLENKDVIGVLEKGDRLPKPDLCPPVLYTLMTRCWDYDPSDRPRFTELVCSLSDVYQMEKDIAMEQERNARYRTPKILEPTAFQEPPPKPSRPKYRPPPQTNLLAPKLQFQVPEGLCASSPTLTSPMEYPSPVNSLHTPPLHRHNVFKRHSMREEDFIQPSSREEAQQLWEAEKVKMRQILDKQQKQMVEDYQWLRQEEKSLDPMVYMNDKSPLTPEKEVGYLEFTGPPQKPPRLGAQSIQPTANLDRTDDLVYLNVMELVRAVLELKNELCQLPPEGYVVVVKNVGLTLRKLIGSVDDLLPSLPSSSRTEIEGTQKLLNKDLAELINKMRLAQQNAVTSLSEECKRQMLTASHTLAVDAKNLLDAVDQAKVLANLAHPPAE
T3 sequence (Q9UM73 19-1620): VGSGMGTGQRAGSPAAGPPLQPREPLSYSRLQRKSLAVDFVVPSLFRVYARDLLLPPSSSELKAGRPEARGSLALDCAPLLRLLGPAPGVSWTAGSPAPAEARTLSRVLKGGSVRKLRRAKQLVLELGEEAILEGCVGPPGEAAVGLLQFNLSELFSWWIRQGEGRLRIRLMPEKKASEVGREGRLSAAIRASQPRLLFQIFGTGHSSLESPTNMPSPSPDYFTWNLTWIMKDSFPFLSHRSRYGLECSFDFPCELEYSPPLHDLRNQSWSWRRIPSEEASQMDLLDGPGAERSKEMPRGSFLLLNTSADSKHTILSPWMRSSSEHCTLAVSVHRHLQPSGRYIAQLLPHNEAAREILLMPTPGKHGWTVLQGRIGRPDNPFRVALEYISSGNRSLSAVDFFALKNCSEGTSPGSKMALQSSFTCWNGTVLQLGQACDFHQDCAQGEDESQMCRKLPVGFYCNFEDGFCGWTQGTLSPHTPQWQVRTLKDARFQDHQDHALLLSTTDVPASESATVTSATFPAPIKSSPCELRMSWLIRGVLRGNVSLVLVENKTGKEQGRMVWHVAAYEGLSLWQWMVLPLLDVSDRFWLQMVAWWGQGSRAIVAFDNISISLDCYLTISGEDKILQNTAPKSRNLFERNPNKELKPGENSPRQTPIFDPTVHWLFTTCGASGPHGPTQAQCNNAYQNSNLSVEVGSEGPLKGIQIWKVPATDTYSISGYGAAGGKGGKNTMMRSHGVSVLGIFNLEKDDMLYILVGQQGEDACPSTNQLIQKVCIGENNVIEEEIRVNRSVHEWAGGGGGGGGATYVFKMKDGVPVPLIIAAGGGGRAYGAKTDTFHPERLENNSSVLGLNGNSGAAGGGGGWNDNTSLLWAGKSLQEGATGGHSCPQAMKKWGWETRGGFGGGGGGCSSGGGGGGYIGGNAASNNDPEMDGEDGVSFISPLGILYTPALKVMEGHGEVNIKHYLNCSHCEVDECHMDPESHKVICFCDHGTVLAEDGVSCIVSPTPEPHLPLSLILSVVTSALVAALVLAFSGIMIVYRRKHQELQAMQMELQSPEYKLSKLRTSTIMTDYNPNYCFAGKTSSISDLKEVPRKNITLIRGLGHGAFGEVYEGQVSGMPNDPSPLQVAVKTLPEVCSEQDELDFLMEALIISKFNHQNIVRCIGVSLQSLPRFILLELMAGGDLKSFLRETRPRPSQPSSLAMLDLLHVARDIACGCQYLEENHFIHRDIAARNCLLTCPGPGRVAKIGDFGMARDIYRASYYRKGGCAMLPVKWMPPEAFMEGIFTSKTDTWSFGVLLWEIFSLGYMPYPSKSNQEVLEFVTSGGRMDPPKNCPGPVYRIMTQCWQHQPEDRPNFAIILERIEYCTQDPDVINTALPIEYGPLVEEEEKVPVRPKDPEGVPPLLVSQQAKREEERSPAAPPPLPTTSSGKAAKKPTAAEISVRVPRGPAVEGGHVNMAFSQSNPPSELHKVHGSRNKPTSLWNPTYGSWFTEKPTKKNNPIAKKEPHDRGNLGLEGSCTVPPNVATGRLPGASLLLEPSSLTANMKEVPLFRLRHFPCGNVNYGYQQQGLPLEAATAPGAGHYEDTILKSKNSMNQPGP
T5 sequence (P08581 25-1390): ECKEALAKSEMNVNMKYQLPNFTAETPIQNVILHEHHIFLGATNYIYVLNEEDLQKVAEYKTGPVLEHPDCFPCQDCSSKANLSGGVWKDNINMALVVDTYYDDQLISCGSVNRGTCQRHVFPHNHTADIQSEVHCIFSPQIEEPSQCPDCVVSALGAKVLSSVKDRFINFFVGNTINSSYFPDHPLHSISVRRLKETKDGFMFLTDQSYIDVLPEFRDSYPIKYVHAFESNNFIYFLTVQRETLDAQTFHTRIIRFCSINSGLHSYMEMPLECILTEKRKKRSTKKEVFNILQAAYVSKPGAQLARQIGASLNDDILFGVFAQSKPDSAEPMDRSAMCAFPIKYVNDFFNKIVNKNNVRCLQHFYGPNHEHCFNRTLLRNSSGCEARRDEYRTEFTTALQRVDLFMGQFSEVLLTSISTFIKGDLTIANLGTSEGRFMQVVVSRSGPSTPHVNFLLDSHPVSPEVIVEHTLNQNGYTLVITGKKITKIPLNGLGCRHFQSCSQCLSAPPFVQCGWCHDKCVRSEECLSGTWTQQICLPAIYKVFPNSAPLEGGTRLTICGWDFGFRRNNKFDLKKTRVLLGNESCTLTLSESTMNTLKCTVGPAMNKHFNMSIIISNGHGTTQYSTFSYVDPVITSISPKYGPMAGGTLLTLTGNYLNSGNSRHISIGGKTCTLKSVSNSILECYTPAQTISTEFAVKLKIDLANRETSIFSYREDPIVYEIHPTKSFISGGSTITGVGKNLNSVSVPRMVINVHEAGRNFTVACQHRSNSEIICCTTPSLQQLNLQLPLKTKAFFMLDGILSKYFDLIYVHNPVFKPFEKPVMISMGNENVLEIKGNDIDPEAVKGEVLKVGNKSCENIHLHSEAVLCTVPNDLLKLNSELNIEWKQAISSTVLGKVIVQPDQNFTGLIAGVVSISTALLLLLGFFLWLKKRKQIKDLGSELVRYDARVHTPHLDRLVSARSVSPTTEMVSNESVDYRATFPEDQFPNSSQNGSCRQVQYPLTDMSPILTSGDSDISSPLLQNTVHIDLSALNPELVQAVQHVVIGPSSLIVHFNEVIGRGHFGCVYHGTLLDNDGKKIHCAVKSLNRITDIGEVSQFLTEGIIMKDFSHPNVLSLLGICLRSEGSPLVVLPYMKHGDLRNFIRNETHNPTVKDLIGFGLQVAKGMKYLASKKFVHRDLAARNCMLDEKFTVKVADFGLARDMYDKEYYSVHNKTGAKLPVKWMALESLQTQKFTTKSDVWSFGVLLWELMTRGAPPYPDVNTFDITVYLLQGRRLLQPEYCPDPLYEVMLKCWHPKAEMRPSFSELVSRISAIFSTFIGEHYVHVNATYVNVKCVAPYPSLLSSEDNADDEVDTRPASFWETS

For `CNC(=O)c1cccc(C)c1Nc1nc(Nc2ccc(N3CCN([C@H]4C5CC6CC4C[C@](O)(C6)C5)CC3)cc2OC)ncc1C(F)(F)F` [Compound 4, 2-((2-((4-(4-((trans)-5-hydroxyadamantan-2-yl)piperazin-1-yl)-2-methoxyphenyl)amino)-5-(trifluoromethyl)pyrimidin-4-yl)amino)-N,3-dimethylbenzamide], the half-maximal inhibitory concentration (IC50) (commonly the midpoint of a concentration-inhibition curve) in assay [1] was 34 nM; in assay [2], 5670 nM; in [3], above 10000 nM; in assay [4], 46.2 nM; in assay [5] (Eurofins) it was 802 nM; in [6] (Pyk2, Eurofins), 301 nM. Also, the IC50 worked out at 1040 nM in assay [7]; 49 nM in assay [10]; 542 nM in assay [11] (Eurofins); 78 nM in assay [12] (Eurofins); 20 nM in assay [13]; 63 nM in assay [14]. The IC50 in [15] was determined as 20 nM; in assay [16], 151 nM; in assay [17], 59 nM. Also, the inhibition (usually the percentage by which the read-out fell short of the control) at 1 µM worked out at 72% in [5] (setting [18]); 96% in assay [6] (Pyk2, at 1 μM, read-out: % inhibition rate (at 1 μM)); 79% in [11] (setting [18]); 97% in [12] (setting [18]). In assay [8], the invasion inhibitory activity result is listed as “excellent invasion inhibitory activity”. The “% TGI” value in assay [9] (20 mg/kg once daily) is 72.11%; in assay [9] (40 mg/kg once daily), 74.03%; in [9] (80 mg/kg once daily) it was 81.28%.
